The NIST ThermoML archive (doi:10.1021/je0604378)
± gives the expanded uncertainty stated by the source.

Conditions: Liquid; for speed of sound: Pulse-echo method; for mass density: 101.33 kPa

## CCCCCCCCO [octan-1-ol]
292.77 K, 15230 kPa
  speed of sound: 1440.3 ± 1.7 m/s
292.77 K, 30430 kPa
  speed of sound: 1505.2 ± 1.8 m/s
292.77 K, 76010 kPa
  speed of sound: 1670.1 ± 2.2 m/s
292.78 K, 60800 kPa
  speed of sound: 1619.3 ± 2.1 m/s
292.79 K, 91200 kPa
  speed of sound: 1717.8 ± 2.3 m/s
292.83 K, 45610 kPa
  speed of sound: 1564.1 ± 1.8 m/s
292.83 K, 96120 kPa
  speed of sound: 1733 ± 2.3 m/s
292.92 K, 100 kPa
  speed of sound: 1365.2 ± 1.5 m/s
293.15 K
  mass density: 825.048 ± 0.94 kg/m3
298.07 K, 76040 kPa
  speed of sound: 1656.5 ± 2.2 m/s
298.07 K, 91190 kPa
  speed of sound: 1703.9 ± 2.3 m/s
298.07 K, 97840 kPa
  speed of sound: 1724.3 ± 2.3 m/s
298.09 K, 45610 kPa
  speed of sound: 1548.8 ± 1.8 m/s
298.09 K, 60840 kPa
  speed of sound: 1604.6 ± 2.1 m/s
298.13 K, 30410 kPa
  speed of sound: 1488.8 ± 1.8 m/s
298.15 K
  mass density: 821.636 ± 0.95 kg/m3
298.19 K, 15200 kPa
  speed of sound: 1422.6 ± 1.7 m/s
298.2 K, 100 kPa
  speed of sound: 1347.1 ± 1.5 m/s
303.15 K
  mass density: 818.173 ± 0.96 kg/m3
303.15 K, 76000 kPa
  speed of sound: 1642.8 ± 2.2 m/s
303.16 K, 91200 kPa
  speed of sound: 1691.2 ± 2.3 m/s
303.18 K, 100 kPa
  speed of sound: 1330.2 ± 1.5 m/s
303.2 K, 101340 kPa
  speed of sound: 1722.3 ± 2.3 m/s
303.26 K, 60820 kPa
  speed of sound: 1590.2 ± 2.1 m/s
303.27 K, 15200 kPa
  speed of sound: 1406.2 ± 1.7 m/s
303.27 K, 45600 kPa
  speed of sound: 1533.9 ± 1.8 m/s
303.28 K, 30410 kPa
  speed of sound: 1473.3 ± 1.8 m/s
308.12 K, 91200 kPa
  speed of sound: 1679.2 ± 2.3 m/s
308.12 K, 101320 kPa
  speed of sound: 1710.3 ± 2.3 m/s
308.15 K
  mass density: 814.675 ± 0.97 kg/m3
308.16 K, 100 kPa
  speed of sound: 1313.3 ± 1.4 m/s
308.16 K, 91210 kPa
  speed of sound: 1679.1 ± 2.3 m/s
308.17 K, 30400 kPa
  speed of sound: 1458.8 ± 1.7 m/s
308.17 K, 76020 kPa
  speed of sound: 1630 ± 2.2 m/s
308.18 K, 45600 kPa
  speed of sound: 1520.3 ± 1.8 m/s
308.18 K, 60790 kPa
  speed of sound: 1576.8 ± 2.1 m/s
308.19 K, 15210 kPa
  speed of sound: 1390.7 ± 1.7 m/s
313.15 K, 100 kPa
  speed of sound: 1296.5 ± 1.4 m/s
313.15 K
  mass density: 811.171 ± 0.98 kg/m3
313.22 K, 91200 kPa
  speed of sound: 1666.8 ± 2.3 m/s
313.22 K, 101340 kPa
  speed of sound: 1697.8 ± 2.3 m/s
313.23 K, 76000 kPa
  speed of sound: 1616.6 ± 2.2 m/s
313.26 K, 15200 kPa
  speed of sound: 1375.1 ± 1.7 m/s
313.26 K, 30390 kPa
  speed of sound: 1443.9 ± 1.7 m/s
313.26 K, 45590 kPa
  speed of sound: 1506.1 ± 1.8 m/s
313.28 K, 60790 kPa
  speed of sound: 1563.5 ± 2.1 m/s
318.15 K
  mass density: 807.654 ± 0.99 kg/m3
318.33 K, 100 kPa
  speed of sound: 1279.2 ± 1.4 m/s
318.82 K, 45600 kPa
  speed of sound: 1491 ± 1.8 m/s
318.82 K, 60790 kPa
  speed of sound: 1549.2 ± 2.1 m/s
318.82 K, 75990 kPa
  speed of sound: 1603.4 ± 2.2 m/s
318.82 K, 101330 kPa
  speed of sound: 1684.9 ± 2.3 m/s
318.83 K, 15200 kPa
  speed of sound: 1357.8 ± 1.7 m/s
318.83 K, 91180 kPa
  speed of sound: 1653.7 ± 2.3 m/s
318.84 K, 30390 kPa
  speed of sound: 1427.8 ± 1.7 m/s
